The record followed here is ChEMBL document CHEMBL2396541, “Synthesis and in vitro evaluation of glycosyl derivatives of luteinizing hormone-releasing hormone (LHRH)” (Bioorg Med Chem, 2013).

Series [1] in a line: Half life in human Caco2 cell homogenates at 200 uM by LC-MS analysis. It counts as ADME, cell-based. The note with it: Caco-2 cell homogenates.
A short description of series [2]: Half life in human. It counts as ADME, organism-based. As to conditions: in vivo; call rule not given here.
In the next series the test system is Caco-2. Put plainly: Prodrug activation in human Caco2 cell homogenates assessed as LHRH release after 2 hrs. The series is classed as cell-based. As to conditions: caco-2, 2 h.
A short description of series [3]: Apparent permeability across human Caco2 cells at 200 uM up to 120 mins by LC-MS analysis. It counts as ADME, cell-based. The note with it: Caco-2. In general terms: Passage across Caco-2 layers is used to estimate intestinal permeability.
A short description of series [4]: Half life in human plasma. It counts as ADME, cell-free.

One may read the half-life as how long it takes for the measured level to halve. Consider `CC(C)C[C@H](NC(=O)[C@@H](Cc1c[nH]c2ccccc12)NC(=O)[C@H](Cc1ccc(O)cc1)NC(=O)[C@H](CO)NC(=O)[C@H](Cc1c[nH]c2ccccc12)NC(=O)[C@H](Cc1cnc[nH]1)NC(=O)[C@H](CCC(N)=O)NC(=O)CCC(=O)N[C@@H]1O[C@H](CO)[C@@H](O[C@@H]2O[C@H](CO)[C@H](O)[C@H](O)[C@H]2O)[C@H](O)[C@H]1O)C(=O)N[C@@H](CCCNC(=N)N)C(=O)N1CCC[C@H]1C(=O)NCC(N)=O`, for which the half-life at 200 µM in series [1] is 133 min. The half-life in series [2] stood at 3 min.
What is called Papp is the rate of passage across a membrane or cell layer, normalised by area and donor concentration. As for `CC(C)C[C@H](NC(=O)CNC(=O)[C@H](Cc1ccc(O)cc1)NC(=O)[C@H](CO)NC(=O)[C@H](Cc1c[nH]c2ccccc12)NC(=O)[C@H](Cc1cnc[nH]1)NC(=O)[C@H](CCC(N)=O)NC(=O)CCC(=O)N[C@@H]1O[C@H](CO)[C@@H](O)[C@H](O)[C@H]1O)C(=O)N[C@@H](CCCNC(=N)N)C(=O)N1CCC[C@H]1C(=O)NCC(N)=O`, the half-life at 200 µM in series [1] is 73.5 min. Moreover, the Drug metabolism result with Caco-2 is recorded as “Not Active”. Also, the Papp at 2 h, 200 µM in series [3] was determined as 2.31 ×10⁻⁶ cm/s.
For `CC(C)C[C@H](NC(=O)CNC(=O)[C@H](Cc1ccc(O)cc1)NC(=O)[C@H](CO)NC(=O)[C@H](Cc1c[nH]c2ccccc12)NC(=O)[C@H](Cc1cnc[nH]1)NC(=O)[C@H](CCC(N)=O)NC(=O)CCC(=O)N[C@@H]1O[C@H](CO)[C@H](O)[C@H](O)[C@H]1O)C(=O)N[C@@H](CCCNC(=N)N)C(=O)N1CCC[C@H]1C(=O)NCC(N)=O`, the half-life at 200 µM in series [1] worked out at 92.2 min. For the same compound, in the series on Caco-2, the Drug metabolism result is on record as “Not Active”. For the same compound, the Papp at 2 h, 200 µM in series [3] was 1.62 ×10⁻⁶ cm/s.
In series [1], `CC(C)C[C@H](NC(=O)CNC(=O)[C@H](Cc1ccc(O)cc1)NC(=O)[C@H](CO)NC(=O)[C@H](Cc1c[nH]c2ccccc12)NC(=O)[C@H](Cc1cnc[nH]1)NC(=O)[C@H](CCC(N)=O)NC(=O)CCC(=O)N[C@@H]1O[C@H](CO)[C@@H](O[C@@H]2O[C@H](CO)[C@H](O)[C@H](O)[C@H]2O)[C@H](O)[C@H]1O)C(=O)N[C@@H](CCCNC(=N)N)C(=O)N1CCC[C@H]1C(=O)NCC(N)=O` displayed a half-life at 200 µM of 133 min. Further, the Drug metabolism result in the series with Caco-2 is listed as “Not Active”. The Papp at 2 h, 200 µM in series [3] worked out at 0.76 ×10⁻⁶ cm/s.
The compound `CC(C)C[C@H](NC(=O)CNC(=O)[C@H](Cc1ccc(O)cc1)NC(=O)[C@H](CO)NC(=O)[C@H](Cc1c[nH]c2ccccc12)NC(=O)[C@H](Cc1cnc[nH]1)NC(=O)[C@@H](N)CCC(=O)O)C(=O)N[C@@H](CCCNC(=N)N)C(=O)N1CCC[C@H]1C(=O)NCC(=O)N[C@@H]1O[C@H](C(N)=O)[C@@H](O)[C@H](O)[C@H]1O` returned a half-life at 200 µM in series [1] of 28.4 min.
In the case of `CC(C)C[C@H](NC(=O)CNC(=O)[C@H](Cc1ccc(O)cc1)NC(=O)[C@H](CO)NC(=O)[C@H](Cc1c[nH]c2ccccc12)NC(=O)[C@H](Cc1cnc[nH]1)NC(=O)[C@H](CCC(=O)O)NC(=O)CCC(=O)N[C@@H]1O[C@H](CO)[C@@H](O)[C@H](O)[C@H]1O)C(=O)N[C@@H](CCCNC(=N)N)C(=O)N1CCC[C@H]1C(=O)NCC(N)=O`, the half-life at 200 µM in series [1] came to 56.7 min. The Drug metabolism entry in the series on Caco-2 was “Not Active”. Further, in series [3], the Papp at 2 h, 200 µM came to 2.65 ×10⁻⁶ cm/s.
In turn, `CC(C)C[C@H](NC(=O)CNC(=O)[C@H](Cc1ccc(O)cc1)NC(=O)[C@H](CO)NC(=O)[C@H](Cc1c[nH]c2ccccc12)NC(=O)[C@H](Cc1cnc[nH]1)NC(=O)[C@H](CCC(=O)O)NC(=O)CCC(=O)N[C@@H]1O[C@H](CO)[C@H](O)[C@H](O)[C@H]1O)C(=O)N[C@@H](CCCNC(=N)N)C(=O)N1CCC[C@H]1C(=O)NCC(N)=O` gave a half-life at 200 µM in series [1] of 51 min. In addition, the Drug metabolism entry in the series on Caco-2 was “Not Active”. Besides, in series [3], the Papp at 2 h, 200 µM amounted to 1.08 ×10⁻⁶ cm/s.
Taken in the same sequence, the figures for `CC(C)C[C@H](NC(=O)CNC(=O)[C@H](Cc1ccc(O)cc1)NC(=O)[C@H](CO)NC(=O)[C@H](Cc1c[nH]c2ccccc12)NC(=O)[C@H](Cc1cnc[nH]1)NC(=O)[C@H](CCC(=O)O)NC(=O)CCC(=O)N[C@@H]1O[C@H](CO)[C@@H](O[C@@H]2O[C@H](CO)[C@H](O)[C@H](O)[C@H]2O)[C@H](O)[C@H]1O)C(=O)N[C@@H](CCCNC(=N)N)C(=O)N1CCC[C@H]1C(=O)NCC(N)=O` were 77 min, “Not Active” and 2.87 ×10⁻⁶ cm/s.
In series [1], `CC(C)C[C@H](NC(=O)CNC(=O)[C@H](Cc1ccc(O)cc1)NC(=O)[C@H](CO)NC(=O)[C@H](Cc1c[nH]c2ccccc12)NC(=O)[C@H](Cc1cnc[nH]1)NC(=O)[C@@H](N)CCC(=O)O)C(=O)N[C@@H](CCCNC(=N)N)C(=O)N1CCC[C@H]1C(=O)NCC(N)=O` yielded a half-life at 200 µM of 30.4 min.
In series [1], `CC(C)C[C@H](NC(=O)CNC(=O)[C@H](Cc1ccc(O)cc1)NC(=O)[C@H](CO)NC(=O)[C@H](Cc1c[nH]c2ccccc12)NC(=O)[C@H](Cc1cnc[nH]1)NC(=O)[C@@H]1CCC(=O)N1)C(=O)N[C@@H](CCCNC(=N)N)C(=O)N1CCC[C@H]1C(=O)NCC(N)=O` [GONADORELIN] yielded a half-life at 200 µM of 32.6 min. For the same compound, the half-life in series [4] turned out to be 3 min. Besides, in series [3], the Papp at 2 h, 200 µM is 0.398 ×10⁻⁶ cm/s.
`CC(C)C[C@H](NC(=O)[C@@H](Cc1c[nH]c2ccccc12)NC(=O)[C@H](Cc1ccc(O)cc1)NC(=O)[C@H](CO)NC(=O)[C@H](Cc1c[nH]c2ccccc12)NC(=O)[C@H](Cc1c[nH]cn1)NC(=O)[C@@H]1CCC(=O)N1)C(=O)N[C@@H](CCCNC(=N)N)C(=O)N1CCC[C@H]1C(=O)NCC(N)=O` [TRIPTORELIN]: in series [1], the half-life at 200 µM is 186 min.
